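Five concentrations, 48 hours, 96-well plates. Here, GI50 denotes the concentration required for 50% inhibition of growth. Definition used: TGI = concentration required for complete inhibition of growth.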
System: M14 melanoma
Assay: inhibition of tumour cell growth, NCI panel, 48 h

Structure (SMILES)	GI50	TGI
CC(=O)N[C@H]1CSSC[C@@H](C(N)=O)NC(=O)[C@H](C(C)C)NC(=O)[C@H](C)NC(=O)[C@H](Cc2cnc[nH]2)NC1=O	> 100 µM	> 100 µM
O=C1CC2c3ccccc3CCC2c2ccccc21 (configuration not stated)		33.4 µM
CCCCCCCCCCCC(=O)OCC1OC(OC)C(NC(=O)N(CCCl)N=O)C(O)C1O (configuration not stated)		24.5 µM
C=CC/C=C/C/C=C/CCCCCCCc1cccc(O)c1C(=O)O		> 100 µM
COc1cc(NC(C)CCCN)c2nccc(C)c2c1 (configuration not stated)		33.7 µM
CCCCCCCCCCCCCCCCCCOc1ccccc1CC(=O)OCC[N+]1(C)CCCC1	2.28 µM	5.46 µM
CCOc1cc(C(C)(C)C)ccc1C1=N[C@@](C)(c2ccc(Cl)cc2)[C@@](C)(c2ccc(Cl)cc2)N1C(=O)N1CCN(CCCS(C)(=O)=O)CC1	3.6 µM	> 100 µM

System: CAKI-1 renal
Assay: inhibition of tumour cell growth, NCI panel, 48 h

Structure (SMILES)	GI50	TGI
Nc1ccc(-c2nc3ccc(Cc4ccc5nc(-c6ccc(N)cc6)[nH]c5c4)cc3[nH]2)cc1	45.6 µM	> 100 µM
O=C1[C@@H]2C(c3ccccc3F)=NO[C@@H]2C(=O)N1c1ccc(Cc2ccc(N3C(=O)[C@H]4C(c5ccccc5F)=NO[C@H]4C3=O)cc2)cc1		> 100 µM
CC(CO)(CO)NCCCCn1ccc2c1C(=O)c1c(c(O)c3ccccc3c1O)C2=O	13.6 µM	30.4 µM
CN(C)c1cc[c]([Sn]([c]2ccc(N(C)C)cc2)([c]2ccc(N(C)C)cc2)[c]2ccc(N(C)C)cc2)cc1	5.13 µM	19.4 µM
COc1cc(/C=C/c2cc(/C=C/c3ccc(O)c(OC)c3)n(C(=O)Nc3ccc(C)cc3C)n2)ccc1O	0.367 µM	5.09 µM
CCN(CC)c1ccc(N=Nc2ccc(-c3nc4ccc[n+](C)c4s3)cc2)cc1		40.3 µM
NC(=O)NCc1c(C(N)=O)ncn1Cc1ccccc1		> 100 µM
O=C1CSC(/C(=N/Nc2ccccc2)c2nc3ccccc3[nH]2)=N1		56.1 µM
Cc1[nH]c2ccccc2c(=O)c1CC=C(Cl)Cl	63.9 µM	> 100 µM
C1CCC([PH+](C2CCCCC2)C2CCCCC2[PH+](C2CCCCC2)C2CCCCC2)CC1.O=C(C1[CH-]CCCC1)C1CCCC[N-]1.[Au] (configuration not stated)	1.07 µM	2.72 µM
O=C(c1ccccc1)C1OC12C(=O)Nc1ccccc12 (configuration not stated)		46 µM
O=C(/C=C\c1ccc(NCc2ccc(C(=O)O)cc2)cc1)CCl	16.6 µM	32.8 µM
COc1cccc(C#Cc2ccccc2C#CCCCCO)c1	6.49 µM	19.9 µM
CC(C)C[C@H](NC(=O)/C=C/Cn1ccc2ccccc2c1=O)B(O)O	4.95 µM	> 100 µM
COc1cccc2c(=O)c3c(sc12)c(N1CCNCC1)nc1ccccc13	1.64 µM	3.01 µM
COc1c(CCl)cc(-c2cc(=O)c3ccccc3s2)cc1CCl		> 100 µM
CSC(C1c2ccccc2N(c2ccc(C)cc2)c2[nH]c(=O)n(C)c(=O)c21)S(=O)(=O)c1ccc(C)cc1 (configuration not stated)		> 100 µM
COc1cc2[nH]c(C(=O)c3cc(OC)c(OC)c(OC)c3)c(N)c2cc1C#CC1CC1	2.54 µM	> 100 µM
O=c1cc(NC2CCN(CCCc3ccccc3)CC2)c2cc(Cl)ccc2o1	12.4 µM	25.6 µM
COc1cc(/C=C(\C#N)c2ccccc2)cc(OC)c1		> 100 µM
CC(=O)N[C@H]1CSSC[C@@H](C(N)=O)NC(=O)[C@H](C(C)C)NC(=O)[C@H](C)NC(=O)[C@H](Cc2cnc[nH]2)NC1=O	> 100 µM	> 100 µM
O=C1CC2c3ccccc3CCC2c2ccccc21 (configuration not stated)		> 100 µM
CCCCCCCCCCCC(=O)OCC1OC(OC)C(NC(=O)N(CCCl)N=O)C(O)C1O (configuration not stated)		> 100 µM
C=CC/C=C/C/C=C/CCCCCCCc1cccc(O)c1C(=O)O		> 100 µM
CN(CCC#N)c1ccc(/C=C(\C#N)c2ccc(Br)cc2)cc1	> 100 µM	> 100 µM
COc1cc(NC(C)CCCN)c2nccc(C)c2c1 (configuration not stated)		56 µM
CCCCCCCCCCCCCCCCCCOc1ccccc1CC(=O)OCC[N+]1(C)CCCC1	1.6 µM	4.05 µM
c1ccc(C2Nc3ccccc3C3OCCCC23)cc1 (configuration not stated)		42.3 µM
CCOc1cc(C(C)(C)C)ccc1C1=N[C@@](C)(c2ccc(Cl)cc2)[C@@](C)(c2ccc(Cl)cc2)N1C(=O)N1CCN(CCCS(C)(=O)=O)CC1	0.214 µM	5.15 µM

System: 786-0 renal
Assay: inhibition of tumour cell growth, NCI panel, 48 h

Structure (SMILES)	GI50	TGI
Nc1ccc(-c2nc3ccc(Cc4ccc5nc(-c6ccc(N)cc6)[nH]c5c4)cc3[nH]2)cc1	4.52 µM	31.6 µM
O=C1[C@@H]2C(c3ccccc3F)=NO[C@@H]2C(=O)N1c1ccc(Cc2ccc(N3C(=O)[C@H]4C(c5ccccc5F)=NO[C@H]4C3=O)cc2)cc1		> 100 µM
Cn1c2ccccc2c(=O)c2ccc(Cl)cc21		> 10 µM
CC(CO)(CO)NCCCCn1ccc2c1C(=O)c1c(c(O)c3ccccc3c1O)C2=O	10.9 µM	26.9 µM
Clc1ccc2c(c1)-c1c3c(nn1-c1ccccc1)-c1ccccc1SC3O2 (configuration not stated)		> 100 µM
O=C1OC2CCCC[C@@H]2C2C[C@]34CCCCC3[C@@H](C(=O)O4)C12 (some centres not stated)		> 100 µM
CN(C)c1cc[c]([Sn]([c]2ccc(N(C)C)cc2)([c]2ccc(N(C)C)cc2)[c]2ccc(N(C)C)cc2)cc1	5.36 µM	19.3 µM
COc1cc(/C=C/c2cc(/C=C/c3ccc(O)c(OC)c3)n(C(=O)Nc3ccc(C)cc3C)n2)ccc1O	0.549 µM	1.76 µM
CCN(CC)c1ccc(N=Nc2ccc(-c3nc4ccc[n+](C)c4s3)cc2)cc1		59.1 µM
NC(=O)NCc1c(C(N)=O)ncn1Cc1ccccc1		> 100 µM
O=C1CSC(/C(=N/Nc2ccccc2)c2nc3ccccc3[nH]2)=N1		80 µM
Cc1[nH]c2ccccc2c(=O)c1CC=C(Cl)Cl	35.3 µM	> 100 µM
C1CCC([PH+](C2CCCCC2)C2CCCCC2[PH+](C2CCCCC2)C2CCCCC2)CC1.O=C(C1[CH-]CCCC1)C1CCCC[N-]1.[Au] (configuration not stated)	0.413 µM	1.85 µM
O=C(c1ccccc1)C1OC12C(=O)Nc1ccccc12 (configuration not stated)		> 100 µM
O=C(/C=C\c1ccc(NCc2ccc(C(=O)O)cc2)cc1)CCl	10.2 µM	23.9 µM
COc1cccc(C#Cc2ccccc2C#CCCCCO)c1	12.8 µM	28 µM
CC(C)C[C@H](NC(=O)/C=C/Cn1ccc2ccccc2c1=O)B(O)O	5.03 µM	> 100 µM
O=C1/C(=C/c2cccc([N+](=O)[O-])c2)COc2ccc(Br)cc21		> 100 µM

Structure (SMILES)	GI50	TGI
COc1cccc2c(=O)c3c(sc12)c(N1CCNCC1)nc1ccccc13	1.73 µM	3.39 µM
COc1c(CCl)cc(-c2cc(=O)c3ccccc3s2)cc1CCl		1.74 µM
CSC(C1c2ccccc2N(c2ccc(C)cc2)c2[nH]c(=O)n(C)c(=O)c21)S(=O)(=O)c1ccc(C)cc1 (configuration not stated)		> 100 µM
CCOC(=O)NC(=O)c1cn(CCCOC(=O)CCCCCCCCCCC(=O)OCCCn2cc(C(=O)NC(=O)OCC)c(=O)[nH]c2=O)c(=O)[nH]c1=O		> 100 µM
COc1cc2[nH]c(C(=O)c3cc(OC)c(OC)c(OC)c3)c(N)c2cc1C#CC1CC1	3.25 µM	> 100 µM
COc1ccc(/C=C/C(=O)C(CC2CCC2)C(=O)/C=C/c2ccc(OC)c(OC)c2)cc1OC	1.83 µM	3.45 µM
O=c1cc(NC2CCN(CCCc3ccccc3)CC2)c2cc(Cl)ccc2o1	6.55 µM	21.2 µM
COc1cc(/C=C(\C#N)c2ccccc2)cc(OC)c1		> 100 µM
CC(=O)N[C@H]1CSSC[C@@H](C(N)=O)NC(=O)[C@H](C(C)C)NC(=O)[C@H](C)NC(=O)[C@H](Cc2cnc[nH]2)NC1=O	> 100 µM	> 100 µM
O=C1CC2c3ccccc3CCC2c2ccccc21 (configuration not stated)		79.8 µM
CCCCCCCCCCCC(=O)OCC1OC(OC)C(NC(=O)N(CCCl)N=O)C(O)C1O (configuration not stated)		10.4 µM
C=CC/C=C/C/C=C/CCCCCCCc1cccc(O)c1C(=O)O		> 100 µM
CN(CCC#N)c1ccc(/C=C(\C#N)c2ccc(Br)cc2)cc1	> 100 µM	> 100 µM
COc1cc(NC(C)CCCN)c2nccc(C)c2c1 (configuration not stated)		38 µM
CCCCCCCCCCCCCCCCCCOc1ccccc1CC(=O)OCC[N+]1(C)CCCC1	1.71 µM	3.25 µM
c1ccc(C2Nc3ccccc3C3OCCCC23)cc1 (configuration not stated)		> 100 µM
CCOc1cc(C(C)(C)C)ccc1C1=N[C@@](C)(c2ccc(Cl)cc2)[C@@](C)(c2ccc(Cl)cc2)N1C(=O)N1CCN(CCCS(C)(=O)=O)CC1	3.2 µM	15.4 µM
